According to patent US20060216258A1, “Water-in-silicone emulsion compositions” (priority 2005, published 2006):

Assay: human repetitive patch test (cumulative irritation)
Settings: undiluted product under semi-occlusive patches daily over twelve-day test period, about 100 μl per patch; SLS value is average of two studies
Experimental: The technique involves application of undiluted test products under semi-occlusive patches daily over a twelve-day test period. Approximately 100 μl of test product is applied to each non-woven cotton pad and secured to the skin with porous, hypoallergenic tape. An undosed patch served as a negative control, while a 1.0% sodium lauryl sulfate (SLS) patch served as the positive control. Each day, patches were removed and test sites professionally graded for irritation prior to re-patching.

CCCCCCCCCCCCOS(=O)(=O)[O-].[Na+] [SLS, sodium lauryl sulfate]
Cumulative Irritation Score: 514
